# Data as given in patent publication US11707511B2, “Vaccine compositions and methods of using the same” (The Board of Supervisors of Louisiana State University and …, priority 2017, dated 2023).
# B1: 2D5F7: IgG2b mAb of hybridoma 2D5F7, specific for Fba peptide; VH SEQ ID NO: 68, VL SEQ ID NO: 70 (antibody, V domains shown)
# VH: MERHWIFLFLLSVTAGVHSQVQLQQSAAELARPGASVKMSCKASGYTFSSYTMHWVKQRPGQGLEWIGYINPSSGYTDYNQKFKDKTTLTADKSSSTAYMQLSSLTSEDSAVYYCARLYDNYDYYAMDYWGQGTSVTVSS
# VL: MDSQAQVLILLLLWVSGTCGDIVMSQSPSSLAVSAGEKVTMSCKSSQSLLNSRIRKNYLAWYQQKPGQSPKLLIYWASTRESGVPDRFTGSGSGTDFTLTISSVQADDLAVYYCKQSYNLLTFGAGTKLELK
# Assays:
# C. albicans = assay: Universal double chimeric peptide vaccines, protection against candidiasis in mouse model; type: in vivo, Candida albicans; details: Table 11; double peptide vaccine formula feasible for human use
# From the text: Each chimeric peptide conjugate comprises two peptide epitopes.
# C. albicans 3153A = assay: Passive transfer of mAbs or mAb cocktails i.p. before lethal i.v. challenge, mouse model of human disseminated candidiasis; type: in vivo, Candida albicans; details: Table 14
# Description: Passive transfer of MAbs by intraperitoneal (i.p.) route. The preventive effect of peptide-specific mAbs listed in Table 3 and Table 4 in naïve mice was examined by passive transfer experiments. […] For testing, mice received 0.5 ml of each mAb or 1 ml of two mAbs in combination (0.5 ml of each) intraperitoneally. […] The negative control materials tested in mice were single mAb or DPBS. Control mice received 0.5 ml of the DPBS diluents or single mAb treatment. For each condition, 6- to 8-week-old female BALB/c mice (NCI) were given 0.5 ml of test mAb, or 1 ml two mAb cocktails or control materials intraperitoneally, followed 4 h later by 0.1 ml intravenously of defined lethal dose of yeast cells per milliliter of DPBS. Mice were divided into groups with five mice each and three independent experiments were carried out. In some experiments, mice were given the same dose of mAbs or control materials on every other day post-challenge for two weeks, as compared to the protective efficacy of mAb in combinations. All mice were sacrificed on day 50. For animal groups that were challenged non-albicans candida species, determined optimal challenge doses were applied for each candida strain.
# The hybridoma clones that produce the universal peptide specific mAbs listed above were generated from mice vaccinated with peptide-pulsed dendritic cell (DC) preparation as described previously (6). The isotype of mAb was determined with a Mouse Monoclonal Antibody Isotyping Kit (Pierce, USA). […] In detail, BALB/c mice were given an i.p dose of each mAb four hours before hematogenous challenged with a lethal dose of C. albicans3153A cells. […] Importantly, passive protection was prevented by removal of the mAbs by absorption with Candida cells before transfer, which provided strong additional evidence for the protection being due to the mAb.
# The three cell wall proteins were selected because of expression during human candidiasis and cell wall association, and included fructose-bisphosphate aldolase (Fba); methyltetrahydropteroyltriglutamate-homocysteine methyltransferase (Met6); hyphal wall protein-1 (Hwp1). The hybridoma clones listed at Table 5, which produce the peptide specific mAbs, were generated from mice vaccinated with peptide-pulsed dendritic cell (DC) preparation as described previously (6). The isotype of mAb was determined with a Mouse Monoclonal Antibody Isotyping Kit (Pierce, USA). […] Importantly, passive protection was prevented by removal of the mAbs by absorption with Candida cells before transfer, which provided strong additional evidence for the protection being due to the mAb).
# The preventive effect of each universal peptide-specific mAb was examined by passive transfer experiments. […] For testing, 5 mice of each tested group received 0.5 ml of each mAb intraperitoneally. The negative control materials tested in mice were mAbs absorbed with C. albicans yeast cells (3153A) and DPBS. Control mice received 0.5 ml of the DPBS diluents or adsorbed mAb solution. For each condition, 6- to 8-week-old female BALB/c mice (NCI) were given 0.5 ml of test mAb, or control materials intraperitoneally, followed 4 h later by 0.1 ml intravenously of a suspension containing lethal dose of Candida cells per milliliter of DPBS. Mice were divided into groups with five mice each and three independent experiments were carried out. We have developed neutropenic murine models of disseminated infection by C. glabrata, C. tropicalis and C. parapsilosis. To induce neutropenia, naïve mice received a 200 mg/kg dose of cyclophosphamide (CY) by i.p. on day −3. Prolonged neutropenia were maintained for 30-50 days by giving each animal a 150 mg/kg dose of CY by i.p. every 10 days after infection.
Molecule,Protection against Candidiasis in mouse model (C. albicans),Protection against Candidiasis in mouse model (grade word) (C. albicans),Protection of adsorbed mAb (C. albicans 3153A; mAb removed by absorption with Candida cells before transfer),"Protection (C. albicans 3153A; single mAb, C. albicans)","Protection (grade word) (C. albicans 3153A; single mAb, C. albicans)"
PADRE-GPV-M1-GPSL-GPV-P1: double peptide vaccine 1; amidation (C-terminus) and acetylation (N-terminus) (Ac-AKFVAAWTLKAAACFWVNPDCGLKTRGPSLCAILGGSKVSDKI-NH2; cysteine pairing not given here),60-90%,High,,,
PADRE-GPV-M2-KK-GPV-P1: double peptide vaccine 10; amidation (C-terminus) and acetylation (N-terminus) (Ac-AKFVAAWTLKAAACTTTIGSFPQTKDIRKKCAILGGSKVSDKI-NH2; cysteine pairing not given here),20-40%,Low,,,
RGD-GPV-P3-KK-GPV-M2: double peptide vaccine 4; amidation (C-terminus) and acetylation (N-terminus) (Ac-RGDCIVIIGGGDTATVAKKKKCTTTIGSFPQTKDIR-NH2; cysteine pairing not given here),70-90%,High,,,
RGD-PADRE-GPV-M2-KK-GPV-P3: double peptide vaccine 11; amidation (C-terminus) and acetylation (N-terminus) (Ac-RGDAKFVAAWTLKAAACTTTIGSFPQTKDIRKKCIVIIGGGDTATVAKK-NH2; cysteine pairing not given here),80-100%,High,,,
RGD-TT830-844-KK-GPV-P3-KK-GPV-M1: double peptide vaccine 8; amidation (C-terminus) and acetylation (N-terminus) (Ac-RGDQYIKANSKFIGITEKKCIVIIGGGDTATVAKKKKCFWVNPDCGLKTR-NH2; cysteine pairing not given here),80-100%,High,,,
RGD-TT947-967-KK-GPV-P3-KK-GPV-M1: double peptide vaccine 9; amidation (C-terminus) and acetylation (N-terminus) (Ac-RGDFNNFTVSFWLRVPKVSASHLEKKCIVIIGGGDTATVAKKKKCFWVNPDCGLKTR-NH2; cysteine pairing not given here),20-40%,Low,,,
TT830-844-GPSL-GPV-M1-GPSL-GPV-P1: double peptide vaccine 2; amidation (C-terminus) and acetylation (N-terminus) (Ac-QYIKANSKFIGITEGPSLCFWVNPDCGLKTRGPSLCAILGGSKVSDKI-NH2; cysteine pairing not given here),40-60%,medium,,,
TT830-844-KK-GPV-P3-KK-GPV-M2: double peptide vaccine 6; amidation (C-terminus) and acetylation (N-terminus) (Ac-QYIKANSKFIGITEKKCIVIIGGGDTATVAKKKKCTTTIGSFPQTKDIR-NH2; cysteine pairing not given here),40-60%,medium,,,
TT947-967-GPSL-GPV-M1-GPSL-GPV-P1: double peptide vaccine 3; amidation (C-terminus) and acetylation (N-terminus) (Ac-FNNFTVSFWLRVPKVSASHLEGPSLCFWVNPDCGLKTRGPSLCAILGGSKVSDKI-NH2; cysteine pairing not given here),40-60%,medium,,,
TT947-967-KK-GPV-P3-KK-GPV-M1: double peptide vaccine 7; amidation (C-terminus) and acetylation (N-terminus) (Ac-FNNFTVSFWLRVPKVSASHLEKKCIVIIGGGDTATVAKKKKCFWVNPDCGLKTR-NH2; cysteine pairing not given here),70-90%,High,,,
B1,,,None,(90-100%),High
